Test results from patent US8846719B2, “Isoxazolo-pyridine derivatives” (Roche Palo Alto LLC, priority 2007, dated 2014).
Read-outs that look alike come from different tables or passages of the source.

Target: human GABA A receptor α5β3γ2 (Homo sapiens (Human), UniProt P18507+P31644)
Test: [3H]flumazenil competition binding assay, human GABA A α5β3γ2 receptors expressed in HEK293 cells
Procedure: The affinity of compounds at GABA A receptor subtypes was measured by competition for [3H]flumazenil (85 Ci/mmol; Roche) binding to HEK293 cells expressing rat (stably transfected) or human (transiently transfected) receptors of composition α1β3γ2, α2β3γ2, α3β3γ2 and α5β3γ2.
Cell pellets were suspended in Krebs-tris buffer (4.8 mM KCl, 1.2 mM CaCl2, 1.2 mM MgCl2, 120 mM NaCl, 15 mM Tris; pH 7.5; binding assay buffer), homogenized by polytron for ca. 20 sec on ice and centrifuged for 60 min at 4° C. (50000 g; Sorvall, rotor: SM24=20000 rpm). The cell pellets were resuspended in Krebs-tris buffer and homogenized by polytron for ca. 15 sec on ice. Protein was measured (Bradford method, Bio-Rad) and aliquots of 1 mL were prepared and stored at −80° C.
Assays were incubated to equilibrium for 1 hour at 4° C. and harvested onto GF/C uni-filters (Packard) by filtration using a Packard harvester and washing with ice-cold wash buffer (50 mM Tris; pH 7.5). After drying, filter-retained radioactivity was detected by liquid scintillation counting. Ki values were calculated using Excel-Fit (Microsoft) and are the means of two determinations.

[1] = human receptor, displacement of [3H]flumazenil (0.5 nM), means of two determinations, read-out: hKi GABAAa5

SMILES | Ki [1] | Ki
Cc1onc(-c2ccccc2)c1COc1ccc(C(=O)NCc2nc(C#N)cs2)cn1 [Example 21, N-(4-Cyano-thiazol-2-ylmethyl)-6-(5-methyl-3-phenyl-isoxazol-4-ylmethoxy)-nicotinamide] | 2.8 nM | 
Cc1onc(-c2ccccc2)c1COc1ccc(C(=O)NCc2ccccn2)cn1 [Example 22, 6-(5-Methyl-3-phenyl-isoxazol-4-ylmethoxy)-N-pyridin-2-ylmethyl-nicotinamide] | 4.6 nM | 
Cc1cc(CNC(=O)c2ccc(OCc3c(-c4ccccc4)noc3C)nc2)c(=O)[nH]n1 [Example 23, N-(6-Methyl-3-oxo-2,3-dihydro-pyridazin-4-ylmethyl)-6-(5-methyl-3-phenyl-isoxazol-4-ylmethoxy)-nicotinamide] | 6.5 nM | 
Cc1onc(-c2ccccc2)c1COc1ccc(C(=O)NCC(=O)OC(C)(C)C)cn1 [Example 24, {[6-(5-Methyl-3-phenyl-isoxazol-4-ylmethoxy)-pyridine-3-carbonyl]-amino}-acetic acid tert-butyl ester] | 35 nM | 
CCOC(=O)C(C)NC(=O)c1ccc(OCc2c(-c3ccccc3)noc2C)nc1 (stereo not drawn) [Example 25, 2-{[6-(5-Methyl-3-phenyl-isoxazol-4-ylmethoxy)-pyridine-3-carbonyl]-amino}-propionic acid ethyl ester] | 20.2 nM | 
Cc1onc(-c2ccccc2)c1COc1ccc(C(=O)NC2CC2)cn1 [Example 27, N-Cyclopropyl-6-(5-methyl-3-phenyl-isoxazol-4-ylmethoxy)-nicotinamide] | 2.7 nM | 
Cc1onc(-c2ccccc2)c1COc1ccc(C(=O)NC2CCC2)cn1 [Example 28, N-Cyclobutyl-6-(5-methyl-3-phenyl-isoxazol-4-ylmethoxy)-nicotinamide] | 2.8 nM | 
Cc1onc(-c2ccccc2)c1COc1ccc(C(=O)NC2CCCC2)cn1 [Example 29, N-Cyclopentyl-6-(5-methyl-3-phenyl-isoxazol-4-ylmethoxy)-nicotinamide] | 3.9 nM | 
Cc1onc(-c2ccccc2)c1COc1ccc(C(=O)NC2CCCCC2)cn1 [Example 30, N-Cyclohexyl-6-(5-methyl-3-phenyl-isoxazol-4-ylmethoxy)-nicotinamide] | 13.1 nM | 
Cc1onc(-c2ccccc2)c1COc1ccc(C(=O)NC2CCOCC2)cn1 [Example 31, 6-(5-Methyl-3-phenyl-isoxazol-4-ylmethoxy)-N-(tetrahydro-pyran-4-yl)-nicotinamide] | 2.1 nM | 
Cc1onc(-c2ccccc2)c1COc1ccc(C(=O)NC2CCS(=O)(=O)CC2)cn1 [Example 33, N-(1,1-Dioxo-hexahydro-1,6-thiopyran-4-yl)-6-(5-methyl-3-phenyl-isoxazol-4-ylmethoxy)-nicotinamide] | 4.9 nM | 
CCN1CCC(NC(=O)c2ccc(OCc3c(-c4ccccc4)noc3C)nc2)CC1 [Example 35, N-(1-Ethyl-piperidin-4-yl)-6-(5-methyl-3-phenyl-isoxazol-4-ylmethoxy)-nicotinamide] | 9.4 nM | 
Cc1onc(-c2ccccc2)c1COc1ccc(C(=O)NC2CCN(C(C)C)CC2)cn1 [Example 36, N-(1-Isopropyl-piperidin-4-yl)-6-(5-methyl-3-phenyl-isoxazol-4-ylmethoxy)-nicotinamide] |  | 9.9 nM
Cc1onc(-c2ccccc2)c1COc1ccc(C(=O)NC2CCN(Cc3ccccc3)CC2)cn1 [Example 37, N-(1-Benzyl-piperidin-4-yl)-6-(5-methyl-3-phenyl-isoxazol-4-ylmethoxy)-nicotinamide] | 7.3 nM | 
Cc1onc(-c2ccccc2)c1COc1ccc(C(=O)NC2CCCN(C(=O)OC(C)(C)C)C2)cn1 (stereo not drawn) [Example 38, 3-{[6-(5-Methyl-3-phenyl-isoxazol-4-ylmethoxy)-pyridine-3-carbonyl]-amino}-piperidine-1-carboxylic acid tert-butyl ester] | 43.5 nM | 
CCN1CCCC(NC(=O)c2ccc(OCc3c(-c4ccccc4)noc3C)nc2)C1 (stereo not drawn) [Example 39, N-(1-Ethyl-piperidin-3-yl)-6-(5-methyl-3-phenyl-isoxazol-4-ylmethoxy)-nicotinamide] | 5 nM | 
CCOC(=O)CN1CCCC(NC(=O)c2ccc(OCc3c(-c4ccccc4)noc3C)nc2)C1 (stereo not drawn) [Example 40, (3-{[6-(5-Methyl-3-phenyl-isoxazol-4-ylmethoxy)-pyridine-3-carbonyl]-amino}-piperidin-1-yl)-acetic acid ethyl ester] | 13.8 nM | 
Cc1onc(-c2ccccc2)c1COc1ccc(C(=O)NC2CCCN(CC(=O)O)C2)cn1 (stereo not drawn) [Example 41, (3-{[6-(5-Methyl-3-phenyl-isoxazol-4-ylmethoxy)-pyridine-3-carbonyl]-amino}-piperidin-1-yl)-acetic acid] | 9.3 nM | 

SMILES | Ki [1] | Ki
CCNC(=O)CN1CCCC(NC(=O)c2ccc(OCc3c(-c4ccccc4)noc3C)nc2)C1 (stereo not drawn) [Example 42, N-(1-Ethylcarbamoylmethyl-piperidin-3-yl)-6-(5-methyl-3-phenyl-isoxazol-4-ylmethoxy)-nicotinamide] | 13.7 nM | 
Cc1onc(-c2ccccc2)c1COc1ccc(C(=O)NC2CCCN(CC(=O)NC3CC3)C2)cn1 (stereo not drawn) [Example 43, N-(1-Cyclopropylcarbamoylmethyl-piperidin-3-yl)-6-(5-methyl-3-phenyl-isoxazol-4-ylmethoxy)-nicotinamide] | 12.3 nM | 
Cc1onc(-c2ccccc2)c1COc1ccc(C(=O)NC2CCCN(CC(=O)NCC(F)(F)F)C2)cn1 (stereo not drawn) [Example 44, 6-(5-Methyl-3-phenyl-isoxazol-4-ylmethoxy)-N-{1-[(2,2,2-trifluoro-ethylcarbamoyl)-methyl]-piperidin-3-yl}-nicotinamide] | 10.1 nM | 
Cc1onc(-c2ccccc2)c1COc1ccc(C(=O)NC2CCCN(CC(=O)NCCO)C2)cn1 (stereo not drawn) [Example 45, N-{1-[(2-Hydroxy-ethylcarbamoyl)-methyl]-piperidin-3-yl}-6-(5-methyl-3-phenyl-isoxazol-4-ylmethoxy)-nicotinamide] | 8.4 nM | 
Cc1onc(-c2ccccc2)c1COc1ccc(C(=O)NC2CCCN(CC(=O)NC3CCOCC3)C2)cn1 (stereo not drawn) [Example 46, 6-(5-Methyl-3-phenyl-isoxazol-4-ylmethoxy)-N-{1-[(tetrahydro-pyran-4-ylcarbamoyl)-methyl]-piperidin-3-yl}-nicotinamide] | 13.1 nM | 
Cc1onc(-c2ccccc2)c1COc1ccc(C(=O)NC(C)(C)C)cn1 [Example 47, N-tert-Butyl-6-(5-methyl-3-phenyl-isoxazol-4-ylmethoxy)-nicotinamide] | 11.8 nM | 
Cc1onc(-c2ccccc2)c1COc1ccc(C(=O)Nc2ccccc2)cn1 [Example 48, 6-(5-Methyl-3-phenyl-isoxazol-4-ylmethoxy)-N-phenyl-nicotinamide] | 38 nM | 
Cc1onc(-c2ccccc2)c1COc1ccc(C(=O)Nc2ccc(F)cc2)cn1 [Example 49, N-(4-Fluoro-phenyl)-6-(5-methyl-3-phenyl-isoxazol-4-ylmethoxy)-nicotinamide] | 12.1 nM | 
Cc1onc(-c2ccccc2)c1COc1ccc(C(=O)N(C)C2CCOCC2)cn1 [Example 50, N-Methyl-6-(5-methyl-3-phenyl-isoxazol-4-ylmethoxy)-N-(tetrahydro-pyran-4-yl)-nicotinamide] | 20.2 nM | 
Cc1onc(-c2ccccc2)c1COc1ccc(C(=O)N2CCCCC2)cn1 [Example 51, [6-(5-Methyl-3-phenyl-isoxazol-4-ylmethoxy)-pyridin-3-yl]-piperidin-1-yl-methanone] | 50.8 nM | 
Cc1onc(-c2ccccc2)c1COc1ccc(C(=O)N2CCC(F)(F)CC2)cn1 [Example 52, (4,4-Difluoro-piperidin-1-yl)-[6-(5-methyl-3-phenyl-isoxazol-4-ylmethoxy)-pyridin-3-yl]-methanone] | 16.8 nM | 
Cc1onc(-c2ccccc2)c1COc1ccc(C(=O)N2CCOCC2)cn1 [Example 53, [6-(5-Methyl-3-phenyl-isoxazol-4-ylmethoxy)-pyridin-3-yl]-morpholin-4-yl-methanone] | 23.6 nM | 
Cc1onc(-c2ccccc2)c1COc1ccc(C(=O)N2CCSCC2)cn1 [Example 54, [6-(5-Methyl-3-phenyl-isoxazol-4-ylmethoxy)-pyridin-3-yl]-thiomorpholin-4-yl-methanone] | 25.6 nM | 
Cc1onc(-c2ccccc2)c1COc1ccc(C(=O)N2CCS(=O)(=O)CC2)cn1 [Example 55, (1,1-Dioxo-1,6-thiomorpholin-4-yl)-[6-(5-methyl-3-phenyl-isoxazol-4-ylmethoxy)-pyridin-3-yl]-methanone] | 22.8 nM | 
Cc1onc(-c2ccccc2)c1COc1cc(OCc2ccccc2)ccn1 [Example 56, 4-Benzyloxy-2-(5-methyl-3-phenyl-isoxazol-4-ylmethoxy)-pyridine] | 35.1 nM | 
Cc1onc(-c2ccccc2)c1COc1cc(C2=CCN(C)CC2)ccn1 [Example 57, 1-Methyl-2′-(5-methyl-3-phenyl-isoxazol-4-ylmethoxy)-1,2,3,6-tetrahydro-[4,4′]bipyridinyl] |  | 32.1 nM
Cc1onc(-c2ccccc2)c1COc1cc(C(=O)NCC(F)(F)F)ccn1 [Example 58, 2-(5-Methyl-3-phenyl-isoxazol-4-ylmethoxy)-N-(2,2,2-trifluoro-ethyl)-isonicotinamide] | 37.8 nM | 
Cc1onc(-c2ccccc2)c1COc1cc(C(=O)NC2CCOCC2)ccn1 [Example 59, 2-(5-Methyl-3-phenyl-isoxazol-4-ylmethoxy)-N-(tetrahydro-pyran-4-yl)-isonicotinamide] | 55.4 nM | 
